The compounds below were run on Caenorhabditis elegans (assay: C. elegans L1 nematicidal dose response in 96-well plates, 5 day visual score (Example 2; same procedure for Example 7, Table 3)). Settings: 0.9 μM, C. elegans L1, scored day 5.
Format: in vivo
Set-up: key to 5 Day Visual Score V1 / 5 Day Visual Score V2 / 5 Day Visual Score V3 / 5 Day Visual Score V4 / 5 Day Visual Score V6 / 5 Day Visual Score V5 / Initial HTS Run Visual Score / Follow-up HTS Run Visual Score: Dead: only stiff L1s (no movement); Dead (L4): worms are dead, but at a later larval stage; majority of worms are L1 (based on size) worms move when plate is tapped; majority of worms are L2 (based on size); majority of worms are L3 (based on size); majority of worms are L4 (based on size); AD: majority of worms are adult; #AD: 5 adult worms or less; B!: sterile (0-25 progeny); B: low broodsize (25-100 progeny); ˜B: moderate broodsize (100-250 progeny); <: reduced broodsize (250-500 progeny); OK: no effect (˜1000+ progeny)
How it was run: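 Scoring was by eye at 100× on day 5, after incubation at 20° C, of 20 C. elegans L1s per well fed 1% E. coli HB101 in NGM. Compound columns V1–V6 spanned 70 μM to 0.3 μM in 3-fold steps, with 1.4% DMSO in the top well and as control.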

SMILES | 5 Day Visual Score V5
Cc1ccc(C(CC(=O)c2ccccc2)Nc2ccc(I)cc2F)o1 (centres unmarked) [AKC 129] | OK (no effect (˜1000+ progeny))

Same assay, conditions: 23.3 μM, C. elegans L1, scored day 5

SMILES | 5 Day Visual Score V2
Cc1ccc(C(CC(=O)c2ccccc2)Nc2ccc(I)cc2F)o1 (centres unmarked) [AKC 129] | Dead

Same assay, conditions: 70 μM, C. elegans L1, scored day 5

SMILES | 5 Day Visual Score V1
Cc1ccc(C(CC(=O)c2ccccc2)Nc2ccc(I)cc2F)o1 (centres unmarked) [AKC 129] | Dead

Same assay, conditions: Follow-up HTS run

SMILES | Follow-up HTS Run % Run | Follow-up HTS Run Visual Score | Follow-up HTS Run mOD
CC1(C)CC(O)CC(C)(CNc2nsc(N3CCN(c4ccc(F)cc4)CC3)n2)C1 (centres unmarked) [compound 244] | 104% | Dead | 167 mOD
Cc1cccc(C)c1N1CCN(c2nc(NCCc3ccc(Oc4ccccc4)cc3)ns2)CC1 [compound 269] | 132% | L4/AD/B | 212 mOD
FC(F)(F)c1cccc(N2CCN(c3nc(NCc4ccccc4C(F)(F)F)ns3)CC2)c1 [compound 258] | 124% | B! (sterile (0-25 progeny)) | 200 mOD
CCN(CC)C(=O)C1CCCN(c2nc(NCc3ccc(C(F)(F)F)cc3)ns2)C1 (centres unmarked) [compound 249] | 112% |  | 180 mOD
CCCCCCCCCCCCCCCCCCN(C)c1nc(N2CCN(c3c(C)cccc3C)CC2)ns1 [compound 229] | 81% | 5AD/B | 130 mOD
CN(Cc1ccccc1)c1nc(NCc2ccccc2)ns1 [AKC 328] | 101% |  | 163 mOD
CN(CCc1ccccc1)c1nc(NCCc2ccc(F)cc2)ns1 [compound 243] | 86% | B (low broodsize (25-100 progeny)) | 139 mOD

Same assay, conditions: Initial HTS run

SMILES | Initial HTS Run % Run | Initial HTS Run Visual Score | Initial HTS Run mOD
CC1(C)CC(O)CC(C)(CNc2nsc(N3CCN(c4ccc(F)cc4)CC3)n2)C1 (centres unmarked) [compound 244] | 125% | Dead | 138 mOD
Cc1cccc(C)c1N1CCN(c2nc(NCCc3ccc(Oc4ccccc4)cc3)ns2)CC1 [compound 269] | 166% | L4/1AD/B | 183 mOD
FC(F)(F)c1cccc(N2CCN(c3nc(NCc4ccccc4C(F)(F)F)ns3)CC2)c1 [compound 258] | 111% | L4/AD/B!-Few Eggs | 122 mOD
CCN(CC)C(=O)C1CCCN(c2nc(NCc3ccc(C(F)(F)F)cc3)ns2)C1 (centres unmarked) [compound 249] | 98% |  | 108 mOD
CCCCCCCCCCCCCCCCCCN(C)c1nc(N2CCN(c3c(C)cccc3C)CC2)ns1 [compound 229] | 125% | Dead | 137 mOD
CN(Cc1ccccc1)c1nc(NCc2ccccc2)ns1 [AKC 328] | 98% |  | 108 mOD
CN(CCc1ccccc1)c1nc(NCCc2ccc(F)cc2)ns1 [compound 243] | 115% | L4/AD/B! | 127 mOD

Same assay, conditions: dose response, dilution V1, day 5

SMILES | 5 Day Visual Score V1
CC1(C)CC(O)CC(C)(CNc2nsc(N3CCN(c4ccc(F)cc4)CC3)n2)C1 (centres unmarked) [compound 244] | Dead
Cc1cccc(C)c1N1CCN(c2nc(NCCc3ccc(Oc4ccccc4)cc3)ns2)CC1 [compound 269] | Dead
CCCCCCCCCCCCCCCCCCN(C)c1nc(N2CCN(c3c(C)cccc3C)CC2)ns1 [compound 229] | Dead
CN(Cc1ccccc1)c1nc(NCc2ccccc2)ns1 [AKC 328] | Dead

Same assay, conditions: dose response, dilution V2, day 5

SMILES | 5 Day Visual Score V2
CC1(C)CC(O)CC(C)(CNc2nsc(N3CCN(c4ccc(F)cc4)CC3)n2)C1 (centres unmarked) [compound 244] | Dead
CCN(CC)C(=O)C1CCCN(c2nc(NCc3ccc(C(F)(F)F)cc3)ns2)C1 (centres unmarked) [compound 249] | ˜B (moderate broodsize (100-250 progeny))
CN(Cc1ccccc1)c1nc(NCc2ccccc2)ns1 [AKC 328] | L1
CN(CCc1ccccc1)c1nc(NCCc2ccc(F)cc2)ns1 [compound 243] | B (low broodsize (25-100 progeny))

Same assay, conditions: dose response, dilution V3, day 5

SMILES | 5 Day Visual Score V3
CC1(C)CC(O)CC(C)(CNc2nsc(N3CCN(c4ccc(F)cc4)CC3)n2)C1 (centres unmarked) [compound 244] | < (reduced broodsize (250-500 progeny))
Cc1cccc(C)c1N1CCN(c2nc(NCCc3ccc(Oc4ccccc4)cc3)ns2)CC1 [compound 269] | OK (no effect (˜1000+ progeny))
FC(F)(F)c1cccc(N2CCN(c3nc(NCc4ccccc4C(F)(F)F)ns3)CC2)c1 [compound 258] | ˜B (moderate broodsize (100-250 progeny))
CCN(CC)C(=O)C1CCCN(c2nc(NCc3ccc(C(F)(F)F)cc3)ns2)C1 (centres unmarked) [compound 249] | OK (no effect (˜1000+ progeny))
CCCCCCCCCCCCCCCCCCN(C)c1nc(N2CCN(c3c(C)cccc3C)CC2)ns1 [compound 229] | #AD/˜B
CN(CCc1ccccc1)c1nc(NCCc2ccc(F)cc2)ns1 [compound 243] | OK (no effect (˜1000+ progeny))

Same assay, conditions: dose response, dilution V4, day 5

SMILES | 5 Day Visual Score V4
CC1(C)CC(O)CC(C)(CNc2nsc(N3CCN(c4ccc(F)cc4)CC3)n2)C1 (centres unmarked) [compound 244] | OK (no effect (˜1000+ progeny))
Cc1cccc(C)c1N1CCN(c2nc(NCCc3ccc(Oc4ccccc4)cc3)ns2)CC1 [compound 269] | OK (no effect (˜1000+ progeny))
FC(F)(F)c1cccc(N2CCN(c3nc(NCc4ccccc4C(F)(F)F)ns3)CC2)c1 [compound 258] | ˜B (moderate broodsize (100-250 progeny))
CCN(CC)C(=O)C1CCCN(c2nc(NCc3ccc(C(F)(F)F)cc3)ns2)C1 (centres unmarked) [compound 249] | OK (no effect (˜1000+ progeny))
CCCCCCCCCCCCCCCCCCN(C)c1nc(N2CCN(c3c(C)cccc3C)CC2)ns1 [compound 229] | OK (no effect (˜1000+ progeny))
CN(CCc1ccccc1)c1nc(NCCc2ccc(F)cc2)ns1 [compound 243] | OK (no effect (˜1000+ progeny))

Same assay, conditions: dose response, dilution V5, day 5

SMILES | 5 Day Visual Score V5
CC1(C)CC(O)CC(C)(CNc2nsc(N3CCN(c4ccc(F)cc4)CC3)n2)C1 (centres unmarked) [compound 244] | OK (no effect (˜1000+ progeny))
Cc1cccc(C)c1N1CCN(c2nc(NCCc3ccc(Oc4ccccc4)cc3)ns2)CC1 [compound 269] | OK (no effect (˜1000+ progeny))
FC(F)(F)c1cccc(N2CCN(c3nc(NCc4ccccc4C(F)(F)F)ns3)CC2)c1 [compound 258] | OK (no effect (˜1000+ progeny))
CCN(CC)C(=O)C1CCCN(c2nc(NCc3ccc(C(F)(F)F)cc3)ns2)C1 (centres unmarked) [compound 249] | OK (no effect (˜1000+ progeny))
CCCCCCCCCCCCCCCCCCN(C)c1nc(N2CCN(c3c(C)cccc3C)CC2)ns1 [compound 229] | OK (no effect (˜1000+ progeny))
CN(Cc1ccccc1)c1nc(NCc2ccccc2)ns1 [AKC 328] | ˜B (moderate broodsize (100-250 progeny))
CN(CCc1ccccc1)c1nc(NCCc2ccc(F)cc2)ns1 [compound 243] | OK (no effect (˜1000+ progeny))

Same assay, conditions: dose response, dilution V6, day 5

SMILES | 5 Day Visual Score V6
CC1(C)CC(O)CC(C)(CNc2nsc(N3CCN(c4ccc(F)cc4)CC3)n2)C1 (centres unmarked) [compound 244] | OK (no effect (˜1000+ progeny))
Cc1cccc(C)c1N1CCN(c2nc(NCCc3ccc(Oc4ccccc4)cc3)ns2)CC1 [compound 269] | OK (no effect (˜1000+ progeny))
FC(F)(F)c1cccc(N2CCN(c3nc(NCc4ccccc4C(F)(F)F)ns3)CC2)c1 [compound 258] | OK (no effect (˜1000+ progeny))
CCN(CC)C(=O)C1CCCN(c2nc(NCc3ccc(C(F)(F)F)cc3)ns2)C1 (centres unmarked) [compound 249] | OK (no effect (˜1000+ progeny))
CCCCCCCCCCCCCCCCCCN(C)c1nc(N2CCN(c3c(C)cccc3C)CC2)ns1 [compound 229] | OK (no effect (˜1000+ progeny))
CN(CCc1ccccc1)c1nc(NCCc2ccc(F)cc2)ns1 [compound 243] | OK (no effect (˜1000+ progeny))

Reference: patent US20020002171A1, “Materials and methods for killing nematodes and nematode eggs” (priority 2000, published 2002)
